Experimental data published in patent US10653797B2, “Compounds and compositions for targeting brain injuries and methods of use thereof” (SANFORD BURNHAM PREBYS MEDICAL DISCOVERY INSTITUTE, priority 2015, dated 2020).
Residues, ends and D or L forms follow the SMILES beside them. FAM = fluoresceinamine label

Experiments:
fluid percussion injury = conditions: intracerebroventricular administration after fluid percussion injury in rats; cited from earlier work
[1] = system: penetrating brain injury (PBI); assay type: in vivo, mouse; conditions: for Peptide signal in injured brain 3 hours after injection (retention): mouse, in vivo; for Homing to the injured brain (FAM fluorescence, immunohistochemical staining): i.v. 6 hours after PBI, 30 minutes circulation
Procedure: All animal experiments were conducted under an approved protocol of the Institutional Animal Care and Use Committee of Sanford Burnham Prebys Medical Discovery Institute. Eight to ten week old male BL6 mice were anesthetized with 4% isoflurane (Aerrane; Baxter, UK) in 70% N2O and 30% O2 and positioned in a stereotaxic frame. Using a head restraint, a 5-mm craniotomy was made using a portable drill and a trephine over the right parietotemporal cortex and the bone flap was removed. Penetrating brain injury model was used as described (Kielian et al., J. Immunol. 166:4634-4643 (2001); Kielian, J. Neuroinflammation 1:16 (2004)). Nine needle punctures using a 21 G needle were made 3 mm deep according to a 3×3 grid, spaced 1 mm in width and 1 mm in height. For traumatic brain injury, a Controlled Cortical Impact (CCI) model was used as described (Krajewska et al., PLoS One 6:e24341 (2011)). Mice were subjected to CCI using the benchmark stereotaxic impactor (Impact One™; myNeuroLab.com) with the actuator part mounted directly on the stereotaxic instrument. The impactor (3 mm in diameter) tip accelerated down to the 1.0 mm distance, reaching the preset velocity of 3 m/s, and the applied electromagnetic force remained there for the dwell time of 85 ms, and then retracted automatically. The contact sensor indicated the exact point of contact for reproducible results. In both models, facemask anesthesia (1-2% isoflurane in 70%/30% nitrous oxide/oxygen) was used during the entire procedure and afterwards, the scalp was closed with sutures, anesthesia discontinued, and mice were administered buprenorphine i.p. for pain control. For the first 2 hours after injury, mice were closely monitored in their cages.
CLARITY was performed on freshly-extracted brain tissues as described (Chung et al., Nature 497:332-337 (2013)). Briefly, mice were intravenously injected with FAM-labeled peptides 6 hours after brain injury. After 30-minute circulation, mice were intracardially perfused with PBS and hydrogel solution (Acrylamide (4%), bis (0.05%), VA-044 Initiator (0.25%), paraformaldehyde 4% in PBS). Following perfusion, the tissues were incubated in the hydrogel solution at 4° C. for 2-3 days. At UCSD Neuroscience Core and Light Microscopy Facility the tissues were then degased with nitrogen and incubated at 37° C. for 3-4 hours for polymerization. Samples were then passively cleared in 4% SDS solution for around 4 weeks until the tissue became transparent. Finally, the samples were washed in PBS-T for 2 days and incubated in gradient glycerol solutions: 30, 50 and 80%, about 1 day each and stored in 80% glycerol at room temperature until imaged on a confocal microscope (Leica SP5).
Animals were intravenously injected, six hours after injury, with 50 nmoles of peptide dissolved in PBS, and allowed to circulate for 30 minutes. Mice were perfused intracardially with saline and organs were isolated and imaged using the Illumatool Bright Light System LT-9900 (Lightools Research). Brains and organs were placed in 4% PFA at pH 7.4 overnight, washed with PBS and placed in graded sucrose solutions overnight before OCT embedding. 10 μm thick sections were cut and analyzed by immunofluorescence. For a complete histological analysis, sections were stained with the Movat pentachrome kit (American Mastertech Inc.) following the manufacturer's instructions.
Frozen sections were permeabilized using PBS-Triton (0.2%), blocking was carried out using 5% blocking buffer: 5% BSA, 1% goat serum, 1% donkey serum in PBS-T. Primary antibodies were incubated in diluted (1%) blocking buffer overnight at dilutions 1/100 or 1/200 at 4° C., washed with PBS-T and incubated with secondary antibodies diluted 1/200 or 1/500 in 1% diluted buffer for one hour at room temperature, subsequently washed with PBS-T, counterstained with DAPI 1 μg/mL in PBS for five minutes, washed with PBS, mounted using mounting media (Vector Biolabs), and imaged on a confocal microscope (Zeiss LSM-710). […]

Tenascin-R = biological target: T1, Tenascin-R (Mus musculus, UniProt Q8BYI9); assay: Peptide affinity chromatography and mass spectrometry of PBI brain extract; assay type: binding; conditions: mouse PBI brain lysate 6 hrs after injury, eluted with 2 mM free CAQK; mean of three technical replicates
T1 construct: from tissue; host or cells: mouse brain, 6 h after penetrating brain injury (detergent lysate)
T1 sequence (Q8BYI9 32-1358): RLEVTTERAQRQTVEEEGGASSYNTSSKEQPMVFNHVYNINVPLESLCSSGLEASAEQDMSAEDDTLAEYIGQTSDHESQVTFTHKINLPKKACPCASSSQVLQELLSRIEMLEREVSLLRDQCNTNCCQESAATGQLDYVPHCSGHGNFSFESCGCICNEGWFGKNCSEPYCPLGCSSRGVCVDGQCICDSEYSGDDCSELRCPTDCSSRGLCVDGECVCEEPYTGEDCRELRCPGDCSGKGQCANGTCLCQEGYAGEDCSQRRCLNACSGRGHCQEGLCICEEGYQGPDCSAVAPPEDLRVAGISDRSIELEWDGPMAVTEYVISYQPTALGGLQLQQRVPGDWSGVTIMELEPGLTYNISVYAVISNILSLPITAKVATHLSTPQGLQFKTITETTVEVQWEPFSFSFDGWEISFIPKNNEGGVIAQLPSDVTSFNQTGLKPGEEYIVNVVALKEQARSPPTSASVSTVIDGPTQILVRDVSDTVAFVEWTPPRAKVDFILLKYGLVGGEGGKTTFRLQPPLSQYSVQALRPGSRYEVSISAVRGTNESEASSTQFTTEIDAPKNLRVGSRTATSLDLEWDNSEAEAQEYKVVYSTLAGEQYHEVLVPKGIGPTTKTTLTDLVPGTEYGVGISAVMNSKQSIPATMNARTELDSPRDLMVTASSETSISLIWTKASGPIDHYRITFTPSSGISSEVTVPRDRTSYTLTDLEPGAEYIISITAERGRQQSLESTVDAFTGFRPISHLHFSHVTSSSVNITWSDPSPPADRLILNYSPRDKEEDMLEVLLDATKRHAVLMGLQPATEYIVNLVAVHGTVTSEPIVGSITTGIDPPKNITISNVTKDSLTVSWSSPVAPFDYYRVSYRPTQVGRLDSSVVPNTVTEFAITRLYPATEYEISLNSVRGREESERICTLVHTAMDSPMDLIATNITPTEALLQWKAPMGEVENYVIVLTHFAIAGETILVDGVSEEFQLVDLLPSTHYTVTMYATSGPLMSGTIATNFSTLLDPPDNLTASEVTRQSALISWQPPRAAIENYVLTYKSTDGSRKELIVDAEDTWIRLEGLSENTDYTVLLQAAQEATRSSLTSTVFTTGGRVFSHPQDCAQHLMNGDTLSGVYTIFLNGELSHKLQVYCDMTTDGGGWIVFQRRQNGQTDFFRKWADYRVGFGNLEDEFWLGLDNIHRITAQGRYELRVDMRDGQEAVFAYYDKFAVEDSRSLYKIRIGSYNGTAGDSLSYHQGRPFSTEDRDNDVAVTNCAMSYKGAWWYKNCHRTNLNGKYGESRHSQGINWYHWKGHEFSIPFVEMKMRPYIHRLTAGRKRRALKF
Procedure: For identifying CAQK binding proteins, mouse brains with brain injury were collected 6 hrs after injury. Using liquid nitrogen, the brains were crushed and ground into powder using a mortar and pestle. Next, brain tissue was lysed in PBS containing 200 mM n-octyl-beta-D-glucopyranoside and protease inhibitor cocktail (Roche) as described (Teesalu et al., PNAS 16157-16162 (2009)). The cleared lysate was loaded on to CAQK or control peptide (CGGK) coated Sulfolink-agarose beads (Pierce, Waltham, Mass.) and incubated at 4° C. for 3-4 hrs. The column was washed with wash buffer (75 mM octyl-beta-D-glucopyranoside and protease inhibitor cocktail in PBS) followed by washing with 0.5 mM control peptide in wash buffer to remove nonspecifically bound proteins. The bound proteins were eluted with 2 mM free CAQK peptide. The eluted factions were pooled, their protein concentration determined by using bicinchoninic acid (BCA) protein assay (Thermo Fischer) and the samples were digested using the Filter-aided Sample Preparation (FASP) method (Wisniewski et al., Nat Methods 6:359-362 (2009)). Finally, the digested samples were desalted, dried, and subjected to LC-MS/MS analysis at the Proteomics Core facility of the Sanford Burnham Prebys Medical Discovery Institute. All mass spectra were analyzed with MaxQuant software version 1.5.0.25. […] Empty column denotes protein was not detected.

| Compound | Peptide signal in injured brain 3 hours after injection (retention) [1] | Homing to the injured brain (FAM fluorescence, immunohistochemical staining) [1] | other results |
| --- | --- | --- | --- |
| CN1CC[C@H](c2c(O)cc(O)c3c(=O)cc(-c4ccccc4Cl)oc23)[C@H](O)C1 [flavopiridol] |  |  | Reduction of lesion volume (fluid percussion injury): approximately 70% |
| C[C@H](NC(=O)[C@@H](N)CS)C(=O)N[C@@H](CCC(N)=O)C(=O)N[C@@H](CCCCN)C(N)=O [CAQK] (H-CAQK-NH2) | visible |  |  |
| FAM-CGGK: FAM-labeled control peptide (CGGK) of the same length and overall charge as CAQK ({FAM}-CGGK-NH2) | completely washed out | minimal fluorescent signal |  |
| CGGK ({FAM}-CGGK-NH2) [control peptide of the same length and overall charge as CAQK, immobilized on Sulfolink-agarose beads] |  |  | Log2 LFQ intensity, Tenascin-R (TNR) in column eluate (Tenascin-R): 24.14 |
| FAM-CAQK: chemically synthesized fluoresceinamine (FAM)-labeled CAQK peptide ({FAM}-CAQK-NH2) |  | selective homing to the injured brain | FAM signal in clarified whole brain (CLARITY) ([1]; i.v. 6 hours after injury, 30-minute circulation): restricted to the injured quadrant of the brain; Co-localization and cellular localization of i.v. injected peptide signal in injured brain ([1]; immunofluorescence of PBI brain sections): prominently accumulated at mature oligodendrocytes |
